Laboratory results taken from ChEMBL document CHEMBL3885881, “DrugMatrix”.

Species on record: Rattus norvegicus
Assay: DrugMatrix - Regimen: Daily Repeat
Type: toxicity, organism-based, Sprague-Dawley
Parameters: regimen Daily Repeat, gender Male, age 6-8 weeks
Settings: in vivo, po, route oral GAVAGE, vehicle 100 % WATER; for ABSOLUTE BASOPHIL / ABSOLUTE EOSINOPHIL / ABSOLUTE LYMPHOCYTE / ABSOLUTE MONOCYTE / ABSOLUTE SEGMENTED NEUTROPHIL / BASOPHIL / EOSINOPHIL / ERYTHROCYTE COUNT / HEMATOCRIT / HEMOGLOBIN / LEUKOCYTE COUNT / LYMPHOCYTE / MEAN CORPUSCULAR HEMOGLOBIN / MEAN CORPUSCULAR HEMOGLOBIN CONCENTRATION / MEAN CORPUSCULAR VOLUME / MONOCYTE / NEUTROPHIL / NUCLEATED RED BLOOD CELLS / PLATELET COUNT: tissue Blood; for ALANINE AMINOTRANSFERASE / ALBUMIN / ALKALINE PHOSPHATASE / ASPARTATE AMINOTRANSFERASE / BLOOD UREA NITROGEN / CARBON DIOXIDE / CHLORIDE / CHOLESTEROL / CREATINE PHOSPHOKINASE / CREATININE / GLUCOSE / LACTATE DEHYDROGENASE / LIPASE / PHOSPHORUS / POTASSIUM / SODIUM / TOTAL BILIRUBIN / TOTAL PROTEIN / URIC ACID: tissue Plasma
[1] = 0 mg/kg, 72 h, dose level Control, time 3 day
[2] = 0 mg/kg, 120 h, dose level Control, time 5 day
[3] = 900 mg/kg, 72 h, dose level Low, time 3 day

Clc1ccc(C(c2ccccc2Cl)C(Cl)Cl)cc1 (centres undefined) [MITOTANE]
ABSOLUTE BASOPHIL [1]: 0 CELLS/uL
ABSOLUTE EOSINOPHIL [1]: 58.83 CELLS/uL
ABSOLUTE LYMPHOCYTE [1]: 11823.5 CELLS/uL
ABSOLUTE MONOCYTE [1]: 169 CELLS/uL
ABSOLUTE SEGMENTED NEUTROPHIL [1]: 815.33 CELLS/uL
BASOPHIL [1]: 0%
EOSINOPHIL [1]: 0.5%
ERYTHROCYTE COUNT [1]: 5.52 x10E6/uL
HEMATOCRIT [1]: 35.77%
HEMOGLOBIN [1]: 14.28 G/DL
LEUKOCYTE COUNT [1]: 12.87 x10E3/uL
LYMPHOCYTE [1]: 91.67%
MEAN CORPUSCULAR HEMOGLOBIN [1]: 25.92 pg
MEAN CORPUSCULAR HEMOGLOBIN CONCENTRATION [1]: 39.95 G/DL
MEAN CORPUSCULAR VOLUME [1]: 64.85 fL
MONOCYTE [1]: 1.33%
NEUTROPHIL [1]: 6.5%
NUCLEATED RED BLOOD CELLS [1]: 0 /100WBC
PLATELET COUNT [1]: 1246.17 x10E3/uL
ALANINE AMINOTRANSFERASE [1]: 66 u/L
ALBUMIN [1]: 4.25 G/DL
ALKALINE PHOSPHATASE [1]: 416 u/L
ASPARTATE AMINOTRANSFERASE [1]: 106.17 u/L
BLOOD UREA NITROGEN [1]: 12.67 mg/dL
CARBON DIOXIDE [1]: 31.83 mmol/L
CHLORIDE [1]: 102.5 MEQ/L
CHOLESTEROL [1]: 69 mg/dL
CREATINE PHOSPHOKINASE [1]: 601.83 u/L
CREATININE [1]: 0.18 mg/dL
GLUCOSE [1]: 154.5 mg/dL
LACTATE DEHYDROGENASE [1]: 301.83 u/L
LIPASE [1]: 11.17 u/L
PHOSPHORUS [1]: 12.08 mg/dL
POTASSIUM [1]: 6.12 MEQ/L
SODIUM [1]: 145.2 MEQ/L
TOTAL BILIRUBIN [1]: 0.17 mg/dL
TOTAL PROTEIN [1]: 6.1 G/DL
URIC ACID [1]: 1.57 mg/dL
ABSOLUTE BASOPHIL [2]: 0 CELLS/uL
ABSOLUTE EOSINOPHIL [2]: 19.33 CELLS/uL
ABSOLUTE LYMPHOCYTE [2]: 12577.83 CELLS/uL
ABSOLUTE MONOCYTE [2]: 106.33 CELLS/uL
ABSOLUTE SEGMENTED NEUTROPHIL [2]: 896.5 CELLS/uL
BASOPHIL [2]: 0%
EOSINOPHIL [2]: 0.17%
ERYTHROCYTE COUNT [2]: 5.84 x10E6/uL
HEMATOCRIT [2]: 36.88%
HEMOGLOBIN [2]: 14.48 G/DL
LEUKOCYTE COUNT [2]: 13.6 x10E3/uL
LYMPHOCYTE [2]: 92.17%
MEAN CORPUSCULAR HEMOGLOBIN [2]: 24.85 pg
MEAN CORPUSCULAR HEMOGLOBIN CONCENTRATION [2]: 39.3 G/DL
MEAN CORPUSCULAR VOLUME [2]: 63.23 fL
MONOCYTE [2]: 0.83%
NEUTROPHIL [2]: 6.83%
NUCLEATED RED BLOOD CELLS [2]: 0 /100WBC
PLATELET COUNT [2]: 1223.5 x10E3/uL
ALANINE AMINOTRANSFERASE [2]: 55.33 u/L
ALBUMIN [2]: 4.08 G/DL
ALKALINE PHOSPHATASE [2]: 355.5 u/L
ASPARTATE AMINOTRANSFERASE [2]: 87.67 u/L
BLOOD UREA NITROGEN [2]: 15.33 mg/dL
CARBON DIOXIDE [2]: 33.83 mmol/L
CHLORIDE [2]: 99.67 MEQ/L
CHOLESTEROL [2]: 72.17 mg/dL
CREATINE PHOSPHOKINASE [2]: 268.33 u/L
CREATININE [2]: 0.15 mg/dL
GLUCOSE [2]: 152.5 mg/dL
LACTATE DEHYDROGENASE [2]: 212.67 u/L
LIPASE [2]: 10.83 u/L
PHOSPHORUS [2]: 11.65 mg/dL
POTASSIUM [2]: 6.73 MEQ/L
SODIUM [2]: 142.43 MEQ/L
TOTAL BILIRUBIN [2]: 0.23 mg/dL
TOTAL PROTEIN [2]: 6.07 G/DL
URIC ACID [2]: 1.7 mg/dL
ABSOLUTE BASOPHIL [3]: 0 CELLS/uL
ABSOLUTE EOSINOPHIL [3]: 0 CELLS/uL
ABSOLUTE LYMPHOCYTE [3]: 16524 CELLS/uL
ABSOLUTE MONOCYTE [3]: 175 CELLS/uL
ABSOLUTE SEGMENTED NEUTROPHIL [3]: 1001 CELLS/uL
BASOPHIL [3]: 0%
EOSINOPHIL [3]: 0%
ERYTHROCYTE COUNT [3]: 5.49 x10E6/uL
HEMATOCRIT [3]: 34.53%
HEMOGLOBIN [3]: 13.73 G/DL
LEUKOCYTE COUNT [3]: 17.7 x10E3/uL
LYMPHOCYTE [3]: 93.33%
MEAN CORPUSCULAR HEMOGLOBIN [3]: 25.03 pg
MEAN CORPUSCULAR HEMOGLOBIN CONCENTRATION [3]: 39.8 G/DL
MEAN CORPUSCULAR VOLUME [3]: 62.9 fL
MONOCYTE [3]: 1%
NEUTROPHIL [3]: 5.67%
NUCLEATED RED BLOOD CELLS [3]: 0 /100WBC
PLATELET COUNT [3]: 1289.67 x10E3/uL
ALANINE AMINOTRANSFERASE [3]: 54 u/L
ALBUMIN [3]: 4.23 G/DL
ALKALINE PHOSPHATASE [3]: 331.33 u/L
ASPARTATE AMINOTRANSFERASE [3]: 74.67 u/L
BLOOD UREA NITROGEN [3]: 13 mg/dL
CARBON DIOXIDE [3]: 33.67 mmol/L
CHLORIDE [3]: 101.67 MEQ/L
CHOLESTEROL [3]: 70.33 mg/dL
CREATINE PHOSPHOKINASE [3]: 271 u/L
CREATININE [3]: 0.45 mg/dL
GLUCOSE [3]: 144.67 mg/dL
LACTATE DEHYDROGENASE [3]: 135 u/L
LIPASE [3]: 12.67 u/L
PHOSPHORUS [3]: 12.8 mg/dL
POTASSIUM [3]: 6.89 MEQ/L
SODIUM [3]: 145.93 MEQ/L
TOTAL BILIRUBIN [3]: 0.1 mg/dL
TOTAL PROTEIN [3]: 6.03 G/DL
URIC ACID [3]: 1.6 mg/dL
